The nature of series [1]: Aqueous solubility of the compound at pH 1. It counts as physicochemical. Conditions: aqueous solution.
Series [2] can be described thus: Oral bioavailability in C57BL/6 mouse at 30 mg/kg measured upto 24 hrs. Conditions: in vivo. It counts as ADME, organism-based.
A short description of series [3]: Cmax in C57BL/6 mouse at 30 mg/kg, po measured upto 24 hrs. Conditions: in vivo. More on the design: route oral, dose 30 mg/kg, time <=24. In kind it is ADME, organism-based.
Series [4] in a line: AUC in C57BL/6 mouse at 30 mg/kg, po measured upto 24 hrs. It counts as ADME, organism-based. More on the design: route oral, dose 30 mg/kg, time <=24. As to conditions: in vivo.
A short description of series [5]: Metabolic stability in human liver microsomes assessed as compound remaining at 0.5 uM incubated for10 mins in presence of NADPH by LC-MS/MS analysis. Conditions: read-out: Stability. It counts as ADME, Microsome.
Series [6] can be described thus: Metabolic stability in mouse liver microsomes assessed as compound remaining at 0.5 uM incubated for10 mins in presence of NADPH by LC-MS/MS analysis. It counts as ADME, Microsome. As to conditions: read-out: Stability. Background: Liver microsomes are a subcellular fraction often used to study metabolism.
Series [7] in a line: Clearance in C57BL/6 mouse at 2 mg/kg, iv measured upto 24 hrs. As to conditions: in vivo. In kind it is ADME, organism-based.
Series [8] can be described thus: Volume of distribution at steady state in C57BL/6 mouse at 2 mg/kg, iv measured upto 24 hrs. In kind it is ADME, organism-based. Conditions: in vivo.
Series [9] in a line: Half life in C57BL/6 mouse at 2 mg/kg, iv measured upto 24 hrs. It counts as ADME, organism-based. Conditions: in vivo.
Series [10] is described as follows: Bioavailability in C57BL/6 mouse at 30 mg/kg, sc measured upto 24 hrs. Conditions: in vivo. It counts as ADME, organism-based.
The nature of series [11]: Cmax in C57BL/6 mouse at 30 mg/kg, sc measured upto 24 hrs. It counts as ADME, organism-based. More on the design: route subcutaneous, dose 30 mg/kg, time <=24. Conditions: in vivo.
Series [12] in a line: AUC in C57BL/6 mouse at 30 mg/kg, sc measured upto 24 hrs. In kind it is ADME, organism-based. More on the design: route subcutaneous, dose 30 mg/kg, time <=24. Conditions: in vivo.
Series [13] is described as follows: Aqueous solubility of the compound at pH 7.4. In kind it is physicochemical. Conditions: aqueous solution.

≈ marks a conversion by molar mass, not a printed value. Some results are limits rather than exact numbers.

Results on 7 molecules are retold here after ChEMBL document CHEMBL5036315, “Synthesis, Structure-Activity Relationships, and In Vivo Evaluation of Novel Tetrahydropyran-Based Thiodisaccharide Mimics as Galectin-3 Inhibitors” (J Med Chem, 2021).

By solubility is commonly meant the concentration that dissolves in the medium under given conditions. Turning to `CO[C@@H]1[C@@H](n2cc(-c3cc(F)c(F)c(F)c3)nn2)[C@@H](O)[C@@H](CO)O[C@H]1S[C@@H]1COC[C@H](n2cc(-c3nccs3)nn2)[C@H]1O`, the solubility in [1] is below 1 µg/mL.

A word on the bioavailability: it is the share of a dose that reaches the circulation, judged against a reference dose that is usually intravenous. High values mean good availability, low ones poor availability. Broadly, the Cmax is the peak of the concentration-time curve. For orientation: AUC means the area under the concentration-time curve, a measure of exposure. Higher therefore signals more exposure. What is called clearance is a measure of how efficiently the substance is removed, as volume per time. The low end stands for a low capacity for elimination, the high end for a high capacity for elimination. By Vss is commonly meant the apparent volume that relates the amount in the body to the concentration in plasma or blood. Read a low Vss as little distribution into tissue. Usually half-life stands for the time in which the quantity being followed falls by half. Low values mean rapid decline, high ones slow decline. `CO[C@@H]1[C@@H](n2cc(-c3cc(F)c(F)c(F)c3)nn2)[C@@H](O)[C@@H](CO)O[C@H]1S[C@@H]1COC[C@H](n2cc(-c3cccc(F)c3)nn2)[C@H]1O` yielded a bioavailability in series [2] of 2%. Besides, in series [3], the Cmax was 200 nM. This molecule also came in with an area under the curve (AUC) at 24 h in [4] of 0.3 µM·h. Besides, the remaining at 10 min, 0.5 µM in series [5] amounted to 78%; in [6] it was 72%. Further, the clearance in series [7] was found to be 59 mL/min/kg. In series [8], the Vss was found to be 3.6 L/kg. The molecule further gave a half-life in series [9] of 1.9 h.

Take `COc1ncc(-c2cn([C@H]3COC[C@@H](S[C@@H]4O[C@H](CO)[C@H](O)[C@H](n5cc(-c6cc(F)c(F)c(F)c6)nn5)[C@H]4OC)[C@@H]3O)nn2)cn1`: the solubility in series [1] was below 1 µg/mL.

Turning to `CO[C@@H]1[C@@H](n2cc(-c3cc(F)c(F)c(F)c3)nn2)[C@@H](O)[C@@H](CO)O[C@H]1S[C@@H]1COC[C@H](n2cc(-c3cncnc3)nn2)[C@H]1O`, the F in [10] (mouse, 30 mg/kg, 24 h) worked out at 100%. The Cmax in series [11] turned out to be 5900 nM. For the same molecule, the remaining at 10 min, 0.5 µM in [5] came out at 45%; in series [6], 89%. This molecule came in with a Vss in series [8] of 2.4 L/kg. The same molecule showed a half-life in series [9] of 1.4 h. The AUC in series [12] (mouse, 24 h) came out at 49 µM·h. In addition, the solubility in [1] is 6 µg/mL (≈ 9.42 µM); in [13] it was 3 µg/mL (≈ 4.71 µM).

For `CO[C@@H]1[C@@H](n2cc(-c3cc(F)c(F)c(F)c3)nn2)[C@@H](O)[C@@H](CO)O[C@H]1S[C@@H]1COC[C@H](n2cc(-c3cccc(O)c3)nn2)[C@H]1O`, the bioavailability in series [2] was 0.3%. This molecule also yielded a Cmax in series [3] of 10 nM. The AUC at 24 h in [4] is 0.04 µM·h. For the same molecule, the remaining at 10 min, 0.5 µM is 98% in series [5] and 92% in series [6]. In series [7], this molecule came in with a clearance of 69 mL/min/kg. In [8], this molecule returned a Vss of 1.6 L/kg. The molecule further had a half-life in series [9] of 1.2 h.

Regarding `COc1cnc(-c2cn([C@H]3COC[C@@H](S[C@@H]4O[C@H](CO)[C@H](O)[C@H](n5cc(-c6cc(F)c(F)c(F)c6)nn5)[C@H]4OC)[C@@H]3O)nn2)nc1`, the solubility in series [1] and in series [13] was below 1 µg/mL in each case.

With `OC[C@H]1O[C@@H](S[C@@H]2O[C@H](CO)[C@H](O)[C@H](n3cc(-c4cccc(F)c4)nn3)[C@H]2O)[C@H](O)[C@@H](n2cc(-c3cccc(F)c3)nn2)[C@H]1O` [OLITIGALTIN], the bioavailability is 1% in series [2] and 66% in [10] (C57BL/6, mouse). In addition, the figures for the Cmax in series [11] and in series [3] were 10300 nM and 300 nM, respectively. The AUC at 24 h in series [4] is 0.3 µM·h; in [12] (C57BL/6, mouse), 17 µM·h. The molecule also came in with a clearance in series [7] of 30 mL/min/kg. The molecule also gave a Vss in series [8] of 0.7 L/kg. In series [9], this molecule had a half-life of 1.6 h.
